This note sets out measurements from patent EP0863891B1, “(METHYLSULFONYL)PHENYL-2-(5H)-FURANONES AS COX-2 INHIBITORS” (Merck Frosst Canada & Co., priority 1995, dated 1997).

The subject of one experiment is Male Sprague-Dawley rats. Nature of the experiment: Rat paw edema assay (carrageenan-induced). As to conditions: Rattus norvegicus, po, 3 hr. Type of experiment: in vivo. The procedure: Male Sprague-Dawley rats (150-200 g) are fasted overnight and are given, po, either vehicle (1% methocel or 5% Tween 80) or a test compound. One hr later, a line is drawn using a permanent marker at the level above the ankle in one hind paw to define the area of the paw to be monitored. The paw volume (V0) is measured using a plethysmometer (Ugo-Basile, Italy) based on the principle of water displacement. The animals are then injected subplantarly with 50 µl of 1% carrageenan solution in saline (PMC Corp, Maine) into the paw using an insulin syringe with a 25-gauge needle (i.e. 500 µg carrageenan per paw). Three hr later, the paw volume (V3) is measured and the increases in paw volume (V3 - VO) are calculated. The animals are sacrificed by CO2 asphyxiation and the absence or presence of stomach lesions scored. Data is compared with the vehicle-control values and percent inhibition calculated. All treatment groups are coded to eliminate observer bias.

The target in experiment [1] is T1, COX-2 (Homo sapiens, UniProt P35354).
T1 sequence (P35354 18-604): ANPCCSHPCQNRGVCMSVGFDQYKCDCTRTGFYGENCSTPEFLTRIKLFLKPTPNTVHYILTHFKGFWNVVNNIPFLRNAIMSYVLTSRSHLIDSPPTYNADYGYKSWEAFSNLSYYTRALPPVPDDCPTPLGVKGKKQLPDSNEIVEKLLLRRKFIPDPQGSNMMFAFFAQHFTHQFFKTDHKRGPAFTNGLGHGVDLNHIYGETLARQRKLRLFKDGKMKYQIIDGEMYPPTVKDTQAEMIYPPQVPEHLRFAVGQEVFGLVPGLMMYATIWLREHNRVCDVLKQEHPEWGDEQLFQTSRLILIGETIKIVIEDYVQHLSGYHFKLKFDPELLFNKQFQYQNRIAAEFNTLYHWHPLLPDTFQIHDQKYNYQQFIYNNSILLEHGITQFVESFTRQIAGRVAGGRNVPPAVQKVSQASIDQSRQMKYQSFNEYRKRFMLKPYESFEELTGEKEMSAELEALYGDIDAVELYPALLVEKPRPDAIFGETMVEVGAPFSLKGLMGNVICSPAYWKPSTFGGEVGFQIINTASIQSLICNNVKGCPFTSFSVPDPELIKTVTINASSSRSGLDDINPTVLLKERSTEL
As to the kind of experiment: Assay of the activity of purified human COX-2 (TMPD chromogenic assay). Format: biochemical. Also noted: made in house; host or cells: Sf9 cells. As for the experimental part:
Assay of the activity of purified human COX-2
The assay mixture (180 µL) contains 100 mM sodium phosphate, pH 6.5, 2 mM genapol X-100, 1 µM hematin, 1 mg/ml gelatin , 80-100 units of purified enzyme (One unit of enzyme is defined as the amount of enzyme required to produce an O.D. change of 0.001/min at 610 nm) and 4 µL of the test compound in DMSO. The mixture is pre-incubated at room temperature (22°C) for 15 minutes prior to initiation of the enzymatic reaction by the addition of 20 µL of a sonicated solution of I mM arachidonic acid (AA) and 1 mM TMPD in assay buffer (without enzyme or hematin). The enzymatic activity is measured by estimation of the initial velocity of TMPD oxidation over the first 36 sec of the reaction. […] IC50 values are derived from 4-parameter least squares non-linear regression analysis of the log-dose vs % inhibition plot.

Another experiment concerns the target T2, CHO [hCOX-2] (Homo sapiens, UniProt P35354).
T2 construct: expressed in transfected cells; host or cells: CHO cells, stably transfected with pCDNAIII
T2 sequence (P35354 18-604): T1 sequence (P35354 18-604)
Nature of the experiment: Whole cell assay for COX-2 using CHO transfected cell line (PGE2 synthesis). Type of experiment: cell-based. The conditions noted are these: Table IV; CHO[hCOX-2] cells, 10 µM AA; read-out: COX-2(IC50, µM) CHO. The procedure:
Chinese hamster ovary (CHO) cell lines which have been stably transfected with an eukaryotic expression vector pCDNAIII containing either the human COX-1 or COX-2 cDNA's are used for the assay. These cell lines are referred to as CHO [hCOX-1] and CHO [hCOX-2], respectively. […] Cells (0.3 x 10^6 cells in 200 µl) are preincubated with 3 µl of the test drug or DMSO vehicle for 15 min at 37°C. […] Cells are then challenged in the presence or absence of drug with the AA/HBSS solution to yield a final concentration of 0.5 µM AA in the CHO[hCOX-1] assay and a final concentration of 10 µM AA in the CHO[hCOX-2] assay. […] The samples are centrifuged at 300 x g at 4°C for 10 min, and an aliquot of the clarified supernatant is appropriately diluted for the determination of PGE2 levels using an enzyme-linked immunoassay for PGE2 (Correlate PGE2 enzyme immunoassay kit, Assay Designs, Inc.). Cyclooxygenase activity in the absence of test compounds is determined as the difference in PGE2 levels of cells challenged with arachidonic acid versus the PGE2 levels in cells mock-challenged with ethanol vehicle. Inhibition of PGE2 synthesis by test compounds is calculated as a percentage of the activity in the presence of drug versus the activity in the positive control samples.
In the assay, inhibition is determined by measuring the amount of prostaglandin E2 (PGE2) synthesized in the presence of arachidonic acid, cyclooxygenase-1 or cyclooxygenase-2 and a putative inhibitor.

For experiment [2], the target named is T1, COX-2. Nature of the experiment: Human whole blood assay, COX-2 (LPS-induced PGE2 production). Type of experiment: cell-based. More on the design: endogenous in cells; host or cells: fresh heparinized human whole blood from volunteers, induced with LPS. As to conditions: Table IV; human whole blood, LPS, 24 hours; read-out: COX-2(IC50, µM) HWB. From the text: As well, platelets in whole blood contain a large amount of the COX-1 enzyme. Immediately following blood clotting, platelets are activated through a thrombin-mediated mechanism. […] Therefore, the degree of selectivity by the test compound can be determined by measuring the levels of PGE2 after LPS induction (COX-2) and TxB2 following blood clotting (COX-1) in the same assay.
A. COX-2 (LPS-induced PGE2 production)
Fresh blood is collected in heparinized tubes by venipuncture from both male and female volunteers. The subjects have no apparent inflammatory conditions and have not taken any NSAIDs for at least 7 days prior to blood collection. Plasma is immediately obtained from a 2mL blood aliquot to use as blank (basal levels of PGE2).

Setting [3] is: Table IV, purified enzyme, TMPD oxidation, read-out: COX-2(IC50, µM) TMPD.

Regarding `CC1(C)OC(=O)C(Oc2ccc(Cl)cc2)=C1c1ccc(S(C)(=O)=O)cc1` [Example 6, 3-(4-Chlorophenoxy)-5,5-dimethyl-4-(4-(methylsulfonyl)phenyl)-5H-furan-2-one], in the experiment with Male Sprague-Dawley rats (Table II), the ED50 – broadly, the dose at which the effect has come halfway, by size or by number of responders – was found to be 7.65 mg/kg. Moreover, the IC50 (commonly the midpoint of a concentration-inhibition curve) against COX-2 [1] was 2 µM.

`CCC(C)OC1=C(c2ccc(S(C)(=O)=O)cc2)C(C)(C)OC1=O` (stereo not shown) [Example 112, 5,5-Dimethyl-3-(2-butoxy)-4-(4-methylsulfonylphenyl)-5H-furan-2-one]: the ED50 in the experiment on Male Sprague-Dawley rats (Table IV) was found to be 8 mg/kg.

For `CC[C@@]1(C)OC(=O)C(Oc2ccc(F)c(F)c2)=C1c1ccc(S(C)(=O)=O)cc1` [Example 117, (5R)-3-(3,4-Difluorophenoxy)-5-ethyl-5-methyl-4-(4-methylsulfonyl)phenyl-5H-furan-2-one], the 50% effect level in the experiment with Male Sprague-Dawley rats (Table IV) (ED50) was put at a dose of 1 mg/kg.

`Cc1cc(OC2=C(c3ccc(S(C)(=O)=O)cc3)C(C)(C)OC2=O)ncc1Cl` [Example 121, 3-(5-Chloro-4-methyl-2-pyridyloxy)-5,5-dimethyl-4-(4-methylsulfonyl)-phenyl-5H-furan-2-one] had an ED50 in the experiment with Male Sprague-Dawley rats (Table IV) of 10 mg/kg.

Regarding `C[C@]1(CC(F)(F)F)OC(=O)C(Oc2ccc(Cl)cn2)=C1c1ccc(S(C)(=O)=O)cc1` [Example 130, (5R)-3-(5-Chloro-2-pyridyloxy)-5-methyl-4-(4-methylsulfonyl)phenyl-5-(2,2,2-trifluoroethyl)-5H-furan-2-one], the IC50 on CHO [hCOX-2] was 0.03 µM; at COX-2 [1] (setting [3]), 7.9 µM; at COX-2 [2], below 0.4 µM.

In turn, `CC(OC1=C(c2ccc(S(C)(=O)=O)cc2)C(C)(C)OC1=O)C1CC1` (stereo not shown) [Example 134] registered an ED50 with Male Sprague-Dawley rats (Table IV) of 0.9 mg/kg.

Turning to `CC1(C)OC(=O)C(OCC2CC2)=C1c1ccc(S(C)(=O)=O)cc1` [Example 148], in the experiment on Male Sprague-Dawley rats (Table IV), the ED50 came out at 1.2 mg/kg. Moreover, on CHO [hCOX-2], the IC50 is 0.01 µM.

For the molecule `CC(C)COC1=C(c2ccc(S(C)(=O)=O)cc2)C(C)(C)OC1=O` [Example 149, 5,5-dimethyl-3-(isobutoxy)-4-(4-(methylsulfonyl)phenyl)-5H-furan-2-one], in the experiment with Male Sprague-Dawley rats (Table IV), the 50% effect level (ED50) was put at a dose of 0.9 mg/kg.

Take `CC1(C)OC(=O)C(Oc2ccc3ncsc3c2)=C1c1ccc(S(C)(=O)=O)cc1` [Example 159, 3-(6-benzothiazolyloxy)-5,5-dimethyl-4-(4-(methylsulfonyl)phenyl)-5H-furan-2-one]: the IC50 was found to be 0.07 µM at CHO [hCOX-2], 25 µM on COX-2 [1] (setting [3]) and 0.26 µM on COX-2 [2].

With `CC[C@@]1(C)OC(=O)C(Oc2ccc(F)cc2)=C1c1ccc(S(C)(=O)=O)cc1` [Example 163, (5R)-3-(4-Fluorophenoxy)-5-ethyl-5-methyl-4-(4-methylsulfonyl) phenyl-5H-furan-2-one], the 50% effect level in the experiment with Male Sprague-Dawley rats (Table IV) (ED50) was put at a dose of 0.64 mg/kg.

For `C[C@]1(CC(F)(F)F)OC(=O)C(Oc2ccc(F)cn2)=C1c1ccc(S(C)(=O)=O)cc1` [Example 164, (5R)-3-(5-Fluoro-2-pyridyloxy)-5-methyl-4-(4-methylsulfonyl) phenyl-5-(2.2.2-trifluoroethyl)-5H-furan-2-one], the ED50 with Male Sprague-Dawley rats (Table IV) is 2 mg/kg.

Turning to `CC1(C)OC(=O)C(OC2CCC2)=C1c1ccc(S(C)(=O)=O)cc1` [Example 174], the ED50 in the experiment with Male Sprague-Dawley rats (Table IV) came to 1.6 mg/kg.

For the molecule `CC1(C)OC(=O)C(OC2CCc3ccccc32)=C1c1ccc(S(C)(=O)=O)cc1` (stereo not shown) [Example 175, 3-(1-Indanyloxy)-5,5-dimethyl-4-(4-(methylsulfonyl)phenyl)-5H-furan-2-one], the IC50 was 0.05 µM at CHO [hCOX-2], 9.5 µM at COX-2 [1] (setting [3]) and 2.3 µM at COX-2 [2].

As for `CC1(C)OC(=O)C(OC2Cc3ccccc3C2)=C1c1ccc(S(C)(=O)=O)cc1` [Example 176], the figures for the IC50 at CHO [hCOX-2], on COX-2 [1] (setting [3]) and at COX-2 [2] were 0.03 µM, 2.2 µM and 0.08 µM, respectively.

For `CC[C@@]1(C)OC(=O)C(Oc2ccc(Br)cn2)=C1c1ccc(S(C)(=O)=O)cc1` [Example 202, (5R)-3-(5-bromo-2-pyridyloxy)-4-(4-methylsulfonylphenyl)-5-ethyl-5-methyl-5H-furan-2-one], the ED50 with Male Sprague-Dawley rats (Table IV) was found to be 5.4 mg/kg.
